Assay results reported in ChEMBL document CHEMBL5584353, “Design, Synthesis, and Biological Evaluation of Potent EZH2/LSD1 Dual Inhibitors for Prostate Cancer” (J Med Chem, 2024).
Calls of active or inactive are those of the source. The rule behind the calls is not given here.

Legend:
[1] = biological target: T1, Lysine-specific histone demethylase 1A (Homo sapiens, UniProt O60341); test: Binding affinity to recombinant human LSD1 assessed as increase in thermal stability at 5 uM at 38 to 58 degreeC incubated for 48 hrs by cellular thermal shift assay
[2] = system: MOLM-13; test: Antiproliferative activity against human MOLM-13 cells assessed as inhibition of cell growth incubated for 6 to 7 days by MTS assay; type: functional, cell-based; settings: time 6-7 day
[3] = Cmax in BALB/c mouse at 50 mg/kg,po measured upto 24 hrs by HPLC-MS/MS analysis; type: ADME, organism-based; settings: in vivo
[4] = system: CWR22R; settings: Homo sapiens, dose 80.0 mg/kg, route ip, time 31.0 day
[5] = system: PC-9; test: Antiproliferative activity against human PC-9 cells assessed as inhibition of cell growth incubated for 6 to 7 days by MTS assay; type: functional, cell-based; settings: time 6-7 day
[6] = system: BT-549; test: Antiproliferative activity against human BT-549 cells assessed as inhibition of cell growth incubated for 6 to 7 days by MTS assay; type: functional, cell-based; settings: time 6-7 day
[7] = Toxicity in BALB/c mouse xenografted with human 22Rv1 cells assessed as lung morphological change at 80 mg/kg,ip administrated daily for 31 days; type: organism-based, CWR22R; settings: in vivo, 744 h, time 31 day
[8] = biological target: T1, Lysine-specific histone demethylase 1A; test: Inhibition of LSD1 in human LNCaP cells assessed as downregulation of AR-V7 expression at 1 to 20 uM incubated for 48 hrs by Western blotting analysis; type: cell-based; settings: dose 1-20 µM
[9] = biological target: T1, Lysine-specific histone demethylase 1A; test: Inhibition of LSD1 in human PC-3 cells assessed as upregulation of H3K9me2 expression at 1 to 5 uM incubated for 5 days by Western blotting analysis; type: cell-based; settings: dose 1-5 µM, time 5.0 day
[10] = biological target: T1, Lysine-specific histone demethylase 1A; test: Inhibition of LSD1 in human LNCaP cells assessed as downregulation of AR expression incubated for 48 hrs by Western blotting analysis; type: cell-based
[11] = Metabolic stability in Sprague-Dawley rat hepatocyte assessed as compound remaining at 20 uM by HPLC-MS/MS analysis; type: ADME, cell-based; settings: hepatocytes, read-out: Stability
[12] = Toxicity in BALB/c mouse xenografted with human 22Rv1 cells assessed as kidney morphological change at 80 mg/kg,ip administrated daily for 31 days; type: organism-based, CWR22R; settings: in vivo, 744 h, time 31 day
[13] = system: CWR22R; test: Antimigratory activity in human 22Rv1 cells assessed as downregulation of N-cadherin expression at 3 to 10 uM incubated for 48 hrs by Western blotting analysis; type: functional, cell-based; settings: dose 3-10 µM
[14] = system: LNCaP; test: Antimigratory activity in human LNCaP cells assessed as upregulation of E-cadherin expression at 3 to 10 uM incubated for 48 hrs by Western blotting analysis; type: functional, cell-based; settings: dose 3-10 µM
[15] = Half life in BALB/c mouse at 50 mg/kg,po measured upto 24 hrs by HPLC-MS/MS analysis; type: ADME, organism-based; settings: in vivo
[16] = system: CWR22R; test: Induction of apoptosis in human 22Rv1 cells assessed as upregulation of cleaved caspase-3 expression incubated for 48 hr by Western blotting analysis; type: functional, cell-based
[17] = biological target: T1, Lysine-specific histone demethylase 1A; test: Inhibition of LSD1 in human LNCaP cells assessed as upregulation of H3K9me2 expression at 1 to 5 uM incubated for 5 days by Western blotting analysis; type: cell-based; settings: dose 1-5 µM, time 5.0 day
[18] = system: PC-3; test: Antimigratory activity in human PC-3 cells assessed as downregulation of E-cadherin expression at 3 to 10 uM incubated for 48 hrs by Western blotting analysis; type: functional, cell-based; settings: dose 3-10 µM
[19] = Clearance in BALB/c mouse at 50 mg/kg,iv measured upto 24 hrs by HPLC-MS/MS analysis; type: ADME, organism-based; settings: in vivo
[20] = Cmax in BALB/c mouse at 50 mg/kg,ip measured upto 24 hrs by HPLC-MS/MS analysis; type: ADME, organism-based; settings: in vivo
[21] = biological target: T2, Histone-lysine N-methyltransferase EZH1 (Homo sapiens, UniProt Q92800); test: Inhibition of EZH1 (unknown origin)
T2 sequence (Q92800 whole entry): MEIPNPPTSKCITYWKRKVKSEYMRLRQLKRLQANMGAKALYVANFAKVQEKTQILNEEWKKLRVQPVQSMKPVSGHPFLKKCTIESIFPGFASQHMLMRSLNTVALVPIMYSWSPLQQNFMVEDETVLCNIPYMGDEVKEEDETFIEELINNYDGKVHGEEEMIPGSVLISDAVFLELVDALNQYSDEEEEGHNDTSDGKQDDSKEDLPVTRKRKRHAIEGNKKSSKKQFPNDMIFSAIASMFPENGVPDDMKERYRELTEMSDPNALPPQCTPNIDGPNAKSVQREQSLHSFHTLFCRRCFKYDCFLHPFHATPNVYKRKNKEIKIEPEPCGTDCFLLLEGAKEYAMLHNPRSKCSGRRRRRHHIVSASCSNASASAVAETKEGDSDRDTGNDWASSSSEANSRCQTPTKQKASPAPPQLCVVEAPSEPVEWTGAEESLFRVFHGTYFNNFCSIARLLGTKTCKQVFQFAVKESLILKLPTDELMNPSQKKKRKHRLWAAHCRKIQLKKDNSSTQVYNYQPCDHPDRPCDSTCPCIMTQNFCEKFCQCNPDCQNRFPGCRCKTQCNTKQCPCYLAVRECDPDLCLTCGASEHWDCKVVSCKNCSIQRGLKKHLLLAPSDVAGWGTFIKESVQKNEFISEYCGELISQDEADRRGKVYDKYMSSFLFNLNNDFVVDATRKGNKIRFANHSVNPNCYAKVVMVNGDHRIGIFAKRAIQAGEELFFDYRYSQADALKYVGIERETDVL

[22] = system: MDA-MB-231; test: Antiproliferative activity against human MDA-MB-231 cells assessed as inhibition of cell growth incubated for 6 to 7 days by MTS assay; type: functional, cell-based; settings: time 6-7 day
[23] = biological target: T1, Lysine-specific histone demethylase 1A; test: Inhibition of LSD1 in human PC-3 cells assessed as upregulation of H3K4me2 expression at 1 to 5 uM incubated for 5 days by Western blotting analysis; type: cell-based; settings: dose 1-5 µM, time 5.0 day
[24] = Metabolic stability in Sprague-Dawley rat hepatocyte assessed as compound remaining at 20 uM incubated for 120 mins by HPLC-MS/MS analysis; type: ADME, cell-based; settings: hepatocytes, read-out: Stability
[25] = system: PC-3; test: Growth inhibition of human PC-3 cells incubated for 6 to 7 days by MTS assay; type: functional; settings: time 6-7 day
[26] = Toxicity in BALB/c mouse xenografted with human 22Rv1 cells assessed as change in body weight at 80 mg/kg,ip administrated daily for 31 days; type: organism-based, CWR22R; settings: in vivo, 744 h, time 31 day
[27] = system: LNCaP; test: Synergistic antiproliferative activity against human LNCaP cells assessed as inhibition of cell growth at 6.25 to 100 uM incubated for 6 to 7 days in presence of enzalutamide by MTS assay; type: functional, cell-based; settings: dose 6.25-100 µM, time 6-7 day
[28] = system: U-937; test: Antiproliferative activity against human U-937 cells assessed as inhibition of cell growth incubated for 6 to 7 days by MTS assay; type: functional, cell-based; settings: time 6-7 day
[29] = Inhibition of LSD2 (unknown origin); design: species or system Homo sapiens
[30] = system: CWR22R; test: Antimigratory activity in human 22Rv1 cells assessed as upregulation of E-cadherin expression at 3 to 10 uM incubated for 48 hrs by Western blotting analysis; type: functional, cell-based; settings: dose 3-10 µM
[31] = system: CWR22R; test: Induction of apoptosis in human 22Rv1 cells assessed as upregulation of cleaved PARP expression incubated for 48 hr by Western blotting analysis; type: functional, cell-based

CCN(c1cc(-c2ccc([C@@H]3C[C@H]3N(CC3CCOCC3)C(=O)OC(C)(C)C)cc2)cc(C(=O)NCc2c(C)cc(C)[nH]c2=O)c1C)C1CCOCC1 (racemic)
Activity [1]: Active
Activity [2]: Active
Cmax [3]: 7410 ng/mL
inhibition [4]: Active
Activity [5]: Active
Activity [6]: Active
Activity [7]: Non-Toxic
inhibition [8]: Active
inhibition [9]: Active
inhibition [10]: Dose-Dependent Effect
remaining at 20 µM [11]: 100%
Activity [12]: Non-Toxic
Activity [13]: Active
Activity [14]: Active
half-life [15]: 3.5 h
Activity [16]: Dose-Dependent Effect
inhibition [17]: Active
Activity [18]: Active
clearance [19]: 6.67 mL/min/kg
Cmax [20]: 20600 ng/mL
IC50 [21]: 2.16 µM
Activity [22]: Active
inhibition [23]: Active
remaining at 2 h, 20 µM [24]: 75.8%
GI50 [25]: 1.04 µM
Activity [26]: Non-Toxic
Activity [27]: Active
Activity [28]: Active
IC50 [29]: 16.6 µM
Activity [30]: Active
Activity [31]: Dose-Dependent Effect
